Laboratory results reported in US7691905B2, “Inhibition of melanogenesis and melanoma metastasis with p-aminobenzoic acid (PABA)” (New York University, priority 2002, dated 2010).

Experiments:
[1] = system: B16 melanoma cells; test: B16 melanoma experimental metastasis in chick embryo model; assay type: in vivo; details: cells grown with 0.1 mg/ml PABA for one to three weeks, injected into 12-day old chick embryos, 7-day incubation
Experimental: The number of melanoma metastases were measured by counting the number of metastatic lung tumor lesions present in lungs from sacrificed chick embryos. The effect of PABA on the aggressiveness and invasiveness of B16 melanoma was measured in a chick embryo model. (Brooks PC et al. (1994) Cell 79:1157-1164.) The effects of PABA on B16 experimental metastasis in vivo were evaluated to determine the role melanin synthesis plays in the aggressiveness and invasiveness of melanoma metastasis. B16 melanoma cells grown in the presence or absence of 0.1 mg/ml PABA for one to three weeks were injected into 12-day old chick embryos. At the end of a 7-day incubation period, the embryos were sacrificed and the number of metastatic lung tumor lesions were quantified.

[2] = system: B16 melanoma cells; test: Intracellular melanin, colour of cell pellets; assay type: cell-based; details: 0.1 mg/ml PABA, three weeks of culture; untreated pellets black
Experimental: To determine whether PABA inhibits the intracellular synthesis of melanin in B16 cells, cells were grown in DMEM in the presence or absence of 0.1 mg/ml PABA. Following three weeks of culture, cells were collected by centrifugation. Cell pellets from cells cultured in the absence of PABA appeared black, as normal, indicating the presence of melanin.

[3] = system: human G-361 melanoma cells; test: Human G-361 melanoma cell proliferation with ionizing radiation, direct cell counts; assay type: cell-based; details: 0.1 mg/ml PABA plus 20 Gy
Experimental: (§1) Cell proliferation was determined by direct cell counts.
The radiation-enhancing effect of PABA on melanoma observed in B16 melanoma cells was confirmed in the pigmented human melanoma cell line G-361 (ATCC Number CRL-1424, (1978) Pediatr Res 12:485.) The human G-361 melanoma cells are more resistant to radiation than B16 melanoma cells and thus require a higher dose of ionizing radiation to inhibit growth, compared to B16 cells. Human G-361 melanoma cells were treated with 20 Gy of radiation, either alone or in combination with 0.1 mg/ml PABA, as described in example 7.

[4] = system: B16F10 melanoma cells; test: Chick embryo tumor growth assay, B16F10 melanoma, PABA and ionizing radiation; assay type: in vivo; details: tumor wet weight after 7 days
Experimental: The chick embryo tumor growth assay (Petitclerc E et al. (2000) J Biol Chem 275:8051-8061) was used to determine whether PABA enhances the effect of ionizing radiation to inhibit tumor growth in vivo. Four groups of chick embryos were studied. […] There were 5 to 10 chick embryos in each group.
The groups were created in the following manner. B16F10 melanoma cells were cultured for 14 days in growth medium in the absence of PABA or in the presence of PABA at a concentration of 100 μg/ml. The cells were harvested, washed, and resuspended in sterile PBS. The B16F10 melanoma cells were implanted on the CAMs of 10-day-old chick embryos, which were then incubated for at least 24 hours. The incubated chick embryos (some that were cultured in the absence of PABA and some that cultured in the presence of PABA) were treated with a single fraction dose of ionizing radiation (5.0 Gy). The embryos were incubated for 7 days and then the chick embryos of each group were sacrificed. The tumors were resected and tumor growth was assessed by measuring the wet weights of the resected tumors.

[5] = system: B16F10 melanoma cells; test: In vivo xenograft study of PABA and radiation, B16F10 melanoma; parameters: species or system Balb/c nude mice; details: tumor volume after 15 days
Experimental: 1×10^6 B16F10 melanoma cells (cultured in the absence of PABA) were implanted subcutaneously into Balb/c nude mice. Intraperitoneal injections of PABA at a concentration of 50 mg/kg were started 3 days after implantation of the tumor cells and continued daily. Ten days following tumor cell implantation, mice were either not irradiated or were irradiated with 3 fractions of 3 Gy every other day for a total dose of 9 Gy.
After 15 days, the animals were sacrificed and the tumors were resected. The tumors were measured and their volumes were calculated.

[6] = system: tyrosinase; test: Tyrosinase activity, Dopachrome formation from L-DOPA (OD 475 nm); assay type: biochemical; details: L-DOPA 8.0 mM, 800 U purified tyrosinase
Experimental: Tyrosinase activity was assessed by measuring the formation of Dopachrome from L-DOPA using absorbance at 475 nm wavelength.
The effects of PABA on tyrosinase activity were evaluated by measuring the formation of Dopachrome using a previously published method. (Heidcamp W (1995), supra.) L-DOPA (8.0 mM) was resuspended in sodium citrate buffer and 800 U of purified tyrosinase was added. Tyrosinase activity was measured by monitoring the formation of Dopachrome by measuring the optical density of the mixture at a wavelength of 475 nm. To assess the effects of PABA, the reactions were performed in the presence or absence of PABA. As a control, reactions were performed in the presence of adenosine instead of PABA.

[7] = system: Lewis Lung Carcinoma (LLC) cells; test: Lewis Lung Carcinoma tumor growth assay on chick embryo CAM; assay type: in vivo; details: cells grown with 0.1 mg/ml PABA for 3 weeks, 7 days
Experimental: The effect of PABA on the growth of carcinoma tumors was tested using the Lewis Lung Carcinoma (LLC) tumor growth assay. (Mauceri H J et al. (2002) Cancer Chemother Pharmacol 50:412-418.) LLC cells were grown in DMEM medium in the presence or absence of 0.1 mg/ml PABA for 3 weeks. Cells were harvested and 2×10^6 cells from each group were inoculated in the CAMs of 10-day old chick embryos. The embryos were allowed to develop for a further seven days. At the end of the 7-day incubation period, the embryos were sacrificed and the tumors removed and wet weights determined.

[8] = system: Lewis Lung Carcinoma (LLC) cells; test: Lewis Lung Carcinoma cell proliferation, direct cell counts; assay type: cell-based; details: 0.1 mg/ml PABA, DMEM, 48-hour incubation
Experimental: The anti-proliferative effect of PABA on carcinoma cells was tested on Lewis Lung Carcinoma (LLC) cells. (Young M R et al. (2003) Int J Cancer 103:38-44.) Cells were grown in DMEM medium in the presence or absence of 0.1 mg/ml PABA. Cell proliferation was monitored by direct cell counts over a 48-hour incubation period.

[9] = system: B16 melanoma cells; test: Melanin secretion of B16 melanoma cells, colour of DMEM medium; assay type: cell-based; details: 0.1 mg/ml PABA in DMEM, seven days; unsupplemented medium turned brown
Experimental: The RPMI medium remained red due to the inhibition of melanin secretion. One of the major components in RPMI that is absent in DMEM is PABA. To assess the effect of PABA on melanin secretion from B16 cells, PABA was added to DMEM culture medium to achieve the same concentration as that found in the RPMI medium: 0.1 mg of PABA per milliliter of medium. Cells were grown in PABA-supplemented DMEM medium for seven days. The PABA-supplemented medium remained red, while the unsupplemented medium turned brown.

[10] = system: B16 melanoma cells; test: Chick embryo tumor growth assay, B16 melanoma on CAM; assay type: in vivo; details: cells grown with 0.1 mg/ml PABA for 6 weeks, CAM of 10-day old chick embryos, 7 days
Experimental: The effect of PABA on solid tumor growth in vivo were evaluated using the chick embryo tumor growth assay. (Petitclerc E et al. (2000) J Biol Chem 275:8051-8061.) B16 melanoma cells were grown in the presence or absence of 0.1 mg/ml PABA for 6 weeks. Cells were harvested and 2.5×10^5 cells from each group were inoculated in the chorioallantoic membranes (CAM) of 10-day old chick embryos. The embryos were allowed to develop for a further seven days. At the end of the 7-day incubation period, the embryos were sacrificed and the tumors removed and wet weights determined. Tumors formed from B16 melanoma cells treated with PABA were, on average, 60% smaller than tumors derived from untreated B16 melanoma cells (FIG. 4).

[11] = system: B16 melanoma cells; test: B16 melanoma cell proliferation with ionizing radiation, direct cell counts; assay type: cell-based; details: 0.1 mg/ml PABA plus single fraction dose of 10 Gy, 3-day incubation
Experimental: as §1
(Kinnaert E et al. (2000) Radiation Res 154:497-502.) Thus, blocking melanin synthesis or melanogenesis may cause melanoma cells to become much more sensitive to radiation therapy. To test the effect of PABA on the anti-proliferative effects of ionizing radiation, B16 melanoma cells grown in the presence or absence of 0.1 mg/ml PABA were treated with a single fraction dose of 10 Gy of ionizing radiation. Cell proliferation was monitored by direct cell counts over a 3-day incubation period.

[12] = system: B16 melanoma cells; test: Melanin content of culture medium by absorbance at 405 nm and 660 nm; assay type: cell-based; details: PABA 0.5 mg/day and 1.0 mg/day, DMEM
Experimental: Melanin levels were determined by absorbance at 405 nm wavelength (A) and absorbance at 660 nm wavelength (B). To further analyze the effects of PABA on B16 melanoma cell melanin secretion, PABA was added at concentrations of 0.5 mg/day and 1.0 mg/day to B16 melanoma cells cultured in DMEM. Samples of the culture medium were then analyzed for melanin content by measuring absorbance at wavelengths of 405 nm and 660 nm.

[13] = system: transplantable melanoma; details: hamsters; Zbytniewski et al. 1977; cited from earlier work
[14] = system: B16 melanoma cells; test: B16 melanoma cell proliferation with PABA and/or Taxol, direct cell counts; assay type: cell-based; details: 10.0 μM paclitaxel and/or 0.1 mg/ml PABA, DMEM, 48-hour incubation
Experimental: as §1
The ability of PABA to enhance the anti-proliferative effect of the chemotherapeutic agent, Taxol, was tested in B16 melanoma cells. […] Cell proliferation was monitored by direct cell counts over a 48-hour incubation period.

## Nc1ccc(C(=O)O)cc1 [PABA, para-Aminobenzoic acid]
[1]
  number of metastatic lung tumor lesions: time dependent inhibition of B16 melanoma metastasis
[2]
  colour of cell pellets (melanin accumulation): much lighter in color
[3]
  cell proliferation, PABA in combination with radiation: essentially completely inhibited the proliferation
[4]; PABA 100 μg/ml plus single fraction ionizing radiation 5.0 Gy
  inhibition of tumor growth as compared to the control group: about 90%
[4]; PABA alone, cells cultured 14 days with 100 μg/ml PABA
  inhibition of tumor growth as compared to the control group: about 75%
[5]; PABA 50 mg/kg i.p. daily plus 3 fractions of 3 Gy (9 Gy), P<0.002
  inhibition of tumor growth as compared to control: about 95%
[5]; PABA alone 50 mg/kg i.p. daily, P>0.100
  effect on tumor growth as compared to control: minimal effect on tumor growth
[6]
  tyrosinase activity (Dopachrome formation): dose dependent inhibition of Dopachrome formation
[7]
  tumor size (wet weight) vs tumors from untreated LLC cells: significantly larger
[8]
  cell proliferation: increased the proliferation of LLC cells
[9]
  colour of culture medium (accumulation of secreted melanin): remained red
[10]
  tumor size (wet weight) reduction vs tumors from untreated cells: 60%
[11]
  cell proliferation after radiation, PABA vs no PABA: increased the anti-proliferative and cytotoxic effects
[12]
  melanin secretion (absorbance of medium at 405 nm and 660 nm): time dependent and concentration dependent inhibition of melanin secretion

## NCc1ccc(C(=O)O)cc1 [PAMBA, para-Aminomethylbenzoic acid]
[13]
  invasiveness of transplantable melanoma metastases: reducing the invasiveness of transplantable melanoma metastases in hamsters

## CC(=O)O[C@H]1C(=O)[C@@]2(C)[C@H]([C@H](OC(=O)c3ccccc3)[C@]3(O)C[C@H](OC(=O)[C@H](O)[C@@H](NC(=O)c4ccccc4)c4ccccc4)C(C)=C1C3(C)C)[C@]1(OC(C)=O)CO[C@@H]1C[C@@H]2O [Paclitaxel, paclitaxel]
[14]
  cell proliferation: significantly inhibited B16 melanoma cell proliferation
